# From publication PMC8587849, “Antimicrobial and Anticancer Application of Silver(I) Dipeptide Complexes” (Molecules, 2021)
# pIC50: −log10 of the molar value. Values joined by “and” are separate entries in the source; they are usually repeats but may differ in a detail not shown here. Equal entries are not always repeated. Where two headings read alike, the source gives them in different places.
# Experiments:
# [1] = tested on: Escherichia coli (E. coli) CCM 3988; assay: Antibacterial activity, macrodilution method; format: cell-based
# Method: (§4) Cultures of bacteria (in Mueller-Hinton broth, MHB) and yeasts (in Sabouraud’s growth medium, SB) were incubated under shaking (250 rpm) at 37 °C. The growth of bacteria and yeasts was evaluated by measuring the absorbance of the growing cultures (A550) until the cultures reached the stationary growth phase. […] The final concentration of DMSO never exceeded 1.0 vol. % in the control or treated samples. […] The IC50 and MIC90 with respect to MIC80 values were evaluated from toxicity curves.
# [2] = tested on: Staphylococcus aureus CCM 3953; assay: Antibacterial activity, macrodilution method; format: cell-based; conditions: S. aureus
# Method: as §4
# [3] = tested on: methicillin-resistant Staphylococcus aureus L12; assay: Antibacterial activity, macrodilution method; format: cell-based; conditions: S. aureus L12 (MRSA)
# Method: as §4
# [4] = tested on: Staphylococcus epidermidis CCM 7221; assay: Antibacterial activity, macrodilution method; format: cell-based; conditions: S.epidermidis
# Method: as §4
# [5] = tested on: Candida parapsilosis ATCC 22019; assay: Antifungal activity (yeast), macrodilution method; format: cell-based; conditions: C. parapsilosis
# Method: as §4
# [6] = tested on: Candida albicans SC 5314; assay: Antifungal activity (yeast), macrodilution method; format: cell-based; conditions: C. albicans
# Method: (§5) Cultures of bacteria (in Mueller-Hinton broth, MHB) and yeasts (in Sabouraud’s growth medium, SB) were incubated under shaking (250 rpm) at 37 °C. The growth of bacteria and yeasts was evaluated by measuring the absorbance of the growing cultures (A550) until the cultures reached the stationary growth phase. […] During culturing, the diameters of growing fungal colonies were measured at regular intervals [71, 72]. […] The final concentration of DMSO never exceeded 1.0 vol. % in the control or treated samples. […] The IC50 and MIC90 with respect to MIC80 values were evaluated from toxicity curves.
# [7] = tested on: Rhizopus oryzae CCM F-8284; assay: Antifungal activity (filamentous fungi), macrodilution on solidified PDA; format: cell-based; conditions: for pIC50: read-out: IC50; for MIC100: suffix s = fungistatic
# Method: as §5
# [8] = tested on: Alternaria alternata CCM F-128; assay: as above; format: cell-based; conditions: A. alternata; for pIC50: read-out: IC50; for MIC100: suffix s = fungistatic
# Method: as §5
# [9] = tested on: A.flavus; assay: Antifungal activity (filamentous fungi); format: cell-based; conditions: read-out: IC50 and MIC100 (class symbol)
# Method: as §5
# [10] = tested on: Microsporum gypseum CCM F-8342; assay: Antifungal activity (filamentous fungi), macrodilution on solidified PDA; format: cell-based; conditions: M.gypseum
# Method: as §5
# [11] = tested on: S. aureus biofilm; assay: Influence on S. aureus biofilm formation, crystal violet staining; format: cell-based; conditions: for A570 (biofilm, crystal violet): control A570 = 0.47; for I: biofilm intensity: control strong
# Method: The biofilm was qualified by the crystal violet staining method. Briefly, overnight cultures of bacteria S.aureus (in MHB) and yeasts C.parapsislosis (in SB) were prepared. The fresh prepared growth media MHB and SB were inoculated with the overnight culture for a final concentration of 5 × 10^6 cells mL^−1. The microbial biofilm was formed in 96-well microplates for adherent cells. […] Prepared cultures were incubated for 2 h at 37 °C. […] The treatment with DMSO (solvent) alone served as a control. The inoculated microplates were incubated at 37 °C for the next 46 h. […] Microplates with mature biofilm were decanted and washed using 200 μL of saline solution. The plate was left for 15 min to dry completely at laboratory temperature. Then, 110 μL of 0.4% crystal violet dye was added to each well, and the plate was incubated for 15 min at laboratory temperature. After the decantation, the plate was washed 3 times with 200 μL of saline solution. Then, 200 μL of 96% ethanol was added. The microplate was left to incubate for 15 min at laboratory temperature. After the transfer of the well content to a clean microplate, the absorbance (570 nm) of released crystal violet (proportionate to biofilm cell density) was measured,, and the values were evaluated as weak biofilm formation A570 <0.1; 0.199>, medium biofilm formation A570 <0.2; 0.3>, strong biofilm formation A570 <0.301; 0.999>, or very strong biofilm formation A570 ≥ 1.00.
# [12] = tested on: HeLa; assay: MTS antiproliferative assay; format: cell-based, human; conditions: 72 h
# Method: (§1) After 72 h of incubation, 10 µL of MTS was added to each well. […] IC50 values were calculated from MTS analyses.
# [13] = tested on: MCF-7; assay: MTS antiproliferative assay; format: cell-based, human; conditions: 72 h
# Method: as §1
# [14] = tested on: BLM; assay: MTS antiproliferative assay; format: cell-based, human; conditions: for pIC50: BLM, MTS, 72 h
# Method: (§2) Cells were maintained in standard conditions with an atmosphere containing 5% CO2 at 37 °C.
# as §1
# [15] = tested on: HCT116; assay: MTS antiproliferative assay; format: cell-based, human; conditions: 72 h
# Method: as §2, §1
# [16] = tested on: Jurkat; assay: MTS antiproliferative assay; format: cell-based, human; conditions: 72 h
# Method: as §2, §1
# [17] = tested on: MDA-MB-231; assay: MTS antiproliferative assay; format: cell-based, human; conditions: 72 h
# Method: as §2, §1
# [18] = tested on: BJ-5ta; assay: MTS assay on fibroblasts; format: cell-based; conditions: BJ-5ta human skin fibroblasts, 72 h
# Method: as §1
# [19] = tested on: CT DNA; assay: UV-Vis absorption titration with CT DNA; format: binding, calf; conditions: 0.01 M Tris-HCl pH 7.4; complex 7.85 × 10^−5 M
# Method: UV–vis spectra were measured in 0.01 M Tris-HCl buffer (pH 7.4) using a Varian Cary 100 Bio spectrophotometer in the range of 230–320 nm and recorded at room temperature (24 °C) using a quartz cuvette of 1 cm path length. The concentration of investigated Ag(I) complexes was 7.85 × 10^−5 M. During the titration, an aliquot of buffered CT DNA solution was added to each cuvette (sample and reference) to eliminate the absorbance of DNA itself. The DNA concentration per nucleotide was determined by absorption spectroscopy using the molar absorption coefficient (6600 M^−1cm^−1) at 260 nm.
# [20] = tested on: CT DNA–HO system; assay: Fluorescence competitive binding with Hoechst 33258; parameters: species or system calf; conditions: displacement of Hoechst 33258 from CT DNA; 462 nm; 10 mM Tris-HCl pH 7.4
# Method: The fluorescence competitive binding studies of silver(I) complexes with Hoechst 33 258 (HO) were performed on a Varian Cary Eclipse spectrophotometer. The emission spectra of DNA–HO were measured in the range of 400–550 nm using an excitation wavelength of 343 nm with a slit width of 5 nm for the excitation and 5 nm for the emission beam. […] Ksv quenching constant was determined according to the classical Stern-Volmer Equation (1) in [63, 75]:F0/F = 1 + KSV [Q](1) where F0 and F are the fluorescence intensities in the absence and the presence of the quencher at 462 nm, KSV is the Stern-Volmer quenching constant and [Q] is the concentration of the quencher.
# [21] = tested on: BLM cells; assay: Cell cycle analysis by flow cytometry; format: cell-based, human; conditions: treated with IC50
# Method: (§3) Prior to each analysis, cells were washed in PBS, followed by resuspending in staining solution (0.5 mg/mL ribonuclease A, 0.2% final concentration Triton X-100, propidium iodide 0.025 mg/mL in 500 µL PBS) (all Sigma Aldrich), and incubated for 30 min at room temperature in the dark. For analysis of stained cells, a BD FACSCalibur flow cytometer (BD Bio-sciences) was used. A minimum of 1 × 10^4 events were analysed per analysis.
# [22] = tested on: HCT116 cells; assay: Cell cycle analysis by flow cytometry; format: cell-based, human; conditions: treated with IC50
# Method: as §3
# [23] = tested on: Jurkat cells; assay: Cell cycle analysis by flow cytometry; format: cell-based, human; conditions: treated with IC50
# Method: as §3
# [24] = tested on: MDA-MB-231 cells; assay: Cell cycle analysis by flow cytometry; format: cell-based, human; conditions: treated with IC50
# Method: as §3
substance,measurement,setting,value
[Ag2(GlyAla)(NO3)2]n [AgGlyAla],pIC50,[1],5.22
same,MIC90,[1],9 µM
same,pIC50,[2],5.15
same,MIC90,[2],11 µM
same,pIC50,[3],5.05
same,MIC90,[3],20 µM
same,pIC50,[4],5.10
same,MIC90,[4],10 µM
same,pIC50,[5],4.52
same,MIC80,[5],60 µM
same,pIC50,[6],4.30
same,MIC80,[6],87 µM
same,pIC50,[7],4.52
same,MIC100,[7],50 µM
same,pIC50,[8],4.38
same,MIC100,[8],> 100 µM
same,pIC50,[9],< 4.00
same,pIC50,[10]; read-out: IC50,4.12
same,MIC100,[10]; suffix s = fungistatic,100 µM
same,"A570 (biofilm, crystal violet)",[11]; complex concentration 5 µM,0.51
same,I: biofilm intensity,[11]; complex concentration 5 µM,strong (strong biofilm formation A570 <0.301; 0.999>)
same,"A570 (biofilm, crystal violet)",[11]; complex concentration 10 µM,0.41
same,I: biofilm intensity,[11]; complex concentration 10 µM,strong (strong biofilm formation A570 <0.301; 0.999>)
same,"A570 (biofilm, crystal violet)",[11]; complex concentration 25 µM,0.25
same,"A570 (biofilm, crystal violet)",[11]; complex concentration 50 µM,0.23
same,"A570 (biofilm, crystal violet)",[11]; complex concentration 100 µM,0.25
same,I: biofilm intensity,[11]; complex concentration 100 µM,medium (medium biofilm formation A570 <0.2; 0.3>)
same,pIC50,[12],4.48
same,pIC50,[13],5.12
same,pIC50,[14],4.96
same,Selectivity index (SI),[14]; ratio of IC50 values BJ-5ta/BLM,3.7
same,pIC50,[15],4.55
same,pIC50,[16],5.01
same,pIC50,[17],5.13
same,pIC50,[18],4.40
same,Hypochromism,[19],40.7%
same,Δλmax (red shift on addition of CT DNA),[19],9 nm
same,KSV (Stern-Volmer quenching constant),[20],7.97 ± 0.03 × 10^4 M^−1
same,cells in G2/M,[21]; 48 h,28.9 ± 2.7%
same,cells in S,[21]; 48 h,19.5 ± 0.1%
same,cells in G2/M,[21]; 72 h,27.3 ± 1.3%
same,cells in S,[21]; 72 h,18.8 ± 0.4%
same,cells in G2/M,[22]; 48 h,14.0 ± 0.4%
same,cells in S,[22]; 48 h,7.0 ± 0.3%
same,cells in G2/M,[22]; 72 h,7.6 ± 1.7%
same,cells in S,[22]; 72 h,8.1 ± 1.2%
same,cells in G2/M,[23]; 48 h,17.9 ± 1.8%
same,cells in S,[23]; 48 h,12.6 ± 0.5%
same,cells in G2/M,[23]; 72 h,10.3 ± 3.1%
same,cells in S,[23]; 72 h,12.1 ± 1.8%
same,cells in G2/M,[24]; 24 h,22.8 ± 2.5% and 22.8%
same,cells in S,[24]; 24 h,11.2 ± 2.0%
same,cells in G2/M,[24]; 48 h,19.4 ± 0.1%
same,cells in S,[24]; 48 h,11.1 ± 0.7%
[Ag(GlyGly)]n(NO3)n [AgGlyGly],pIC50,[1],5.22
same,MIC90,[1],10 µM
same,pIC50,[2],4.92
same,MIC90,[2],22 µM
same,pIC50,[3],4.82
same,MIC90,[3],38 µM
same,pIC50,[4],5.00
same,MIC90,[4],20 µM
same,pIC50,[5],4.52
same,MIC80,[5],70 µM
same,pIC50,[6],4.15
same,MIC80,[6],100 µM
same,pIC50,[7],4.52
same,MIC100,[7],50 µM
same,pIC50,[8],4.15
same,MIC100,[8],> 100 µM
same,pIC50,[9],< 4.00
same,pIC50,[10]; read-out: IC50 and MIC100 (class symbol),< 4.00
same,"A570 (biofilm, crystal violet)",[11]; complex concentration 5 µM,0.72
same,I: biofilm intensity,[11]; complex concentration 5 µM,strong (strong biofilm formation A570 <0.301; 0.999>)
same,"A570 (biofilm, crystal violet)",[11]; complex concentration 10 µM,0.39
same,I: biofilm intensity,[11]; complex concentration 10 µM,strong (strong biofilm formation A570 <0.301; 0.999>)
same,"A570 (biofilm, crystal violet)",[11]; complex concentration 25 µM,0.26
same,"A570 (biofilm, crystal violet)",[11]; complex concentration 50 µM,0.22
same,"A570 (biofilm, crystal violet)",[11]; complex concentration 100 µM,0.28
same,I: biofilm intensity,[11]; complex concentration 100 µM,medium (medium biofilm formation A570 <0.2; 0.3>)
same,pIC50,[12],4.42
same,pIC50,[13],5.05
same,pIC50,[14],4.67
same,pIC50,[15],4.46
same,pIC50,[16],4.83
same,pIC50,[17],4.89
same,pIC50,[18],4.33
same,Hypochromism,[19],20.1%
same,Δλmax (red shift on addition of CT DNA),[19],22 nm
same,KSV (Stern-Volmer quenching constant),[20],4.51 ± 0.05 × 10^4 M^−1
same,cells in G2/M,[21]; 48 h,32.7 ± 2.4%
same,cells in S,[21]; 48 h,15.3 ± 1.5%
same,cells in G2/M,[22]; 72 h,7.1 ± 2.3%
same,cells in S,[22]; 72 h,9.8 ± 0.1%
same,cells in G2/M,[23]; 72 h,8.9 ± 0.1%
same,cells in S,[23]; 72 h,11.1 ± 0.8%
same,cells in G2/M,[24]; 72 h,14.9 ± 0.1%
same,cells in S,[24]; 72 h,14.4 ± 0.1%
